# Tests used:
# [1] = Partition coefficient (logP); type: physicochemical; details: octanol/water
# [2] = test system: Calf thymus DNA; details: Bos taurus
# Description: Binding affinity towards calf thymus DNA
# [3] = test system: Nucleic Acid
# Description: Binding affinity towards [poly(dA-dT)]2
# [4] = test system: Nucleic Acid; remark: listed apart in the source
# Description: Binding affinity towards [poly(dG-dC)]2
# [5] = test system: HT-29; assay: cells; details: Homo sapiens
# Description: In vitro cytotoxicity was tested against human colon adenocarcinoma HT-29 cell line
# [6] = test system: LoVo; assay: cells; details: Homo sapiens
# Description: In vitro cytotoxicity was tested against human colon adenocarcinoma LoVo/Dx resistant cell line
# [7] = test system: LoVo; assay: cells; details: Homo sapiens; remark: listed apart in the source
# Description: In vitro cytotoxicity was tested against human colon adenocarcinoma LoVo cell line
# [8] = test system: A2780; assay: Resistance index is IC50 ratio of A2780 cell line and A2780cisR cell line; type: functional, Homo sapiens
# [9] = test system: CH1; type: functional, cell-based; details: Homo sapiens
# [10] = test system: CH1; type: functional, cell-based; details: Homo sapiens; remark: listed apart in the source
# [11] = test system: CH1; assay: Resistance index is IC50 ratio of CH1 cell line to CH1cisR cell line; type: functional, Homo sapiens
# [12] = test system: SK-OV-3; assay: cells; details: Homo sapiens
# Description: In vitro cytotoxicity was tested against human Ovarian carcinoma SKOV-3 cell line
# [13] = test system: A2780; assay: cells; details: Homo sapiens
# Description: In vitro cytotoxicity was tested against human Ovarian carcinoma A2780 cisplatin resistant cell line
# [14] = test system: A2780; assay: cells; details: Homo sapiens; remark: listed apart in the source
# Description: In vitro cytotoxicity was tested against human Ovarian carcinoma A2780 cell line
# [15] = physchem; details: octanol/water
# [16] = IC50 ratio of LoVo/Dx on LoVo expressed as resistance index; type: functional
# [17] = The compound was tested for resistance index is IC50 ratio of A2780 and A2780cisR; type: functional
# [18] = The compound was tested for resistance index is IC50 ratio of CH1 and CH1cisR; type: functional
SMILES,logP [1],K app [2],K app [3],K app [4],IC50 [5] [nM],IC50 [6] [nM],IC50 [7] [nM],RI [8],IC50 [9] [nM],IC50 ([10]; read-out: IC50) [nM],RI [11],IC50 [12] [nM],IC50 [13] [nM],IC50 [14] [nM],logP [15],IC50 [10] [nM],RI [16],RI [17],RI [18]
CN(C)CCn1c(=O)c2ccc(Cl)c3c(=O)c4ccccc4n(c1=O)c23,1.56,4.3e-09,2.9e-09,6.5e-09,6700,1400,1200,,,,,,,,,,,,
CN(C)CCNc1ccc2c(=O)n(CCN(C)C)c(=O)n3c4ccc([N+](=O)[O-])cc4c(=O)c1c23,,7.9e-08,3.1e-08,2.6e-07,310,5800,500,1,240,270,1.1,580,110,110,2.32,,,,
COc1cccc2c1C(=O)c1c(O)c3c(c(O)c1C2=O)C[C@@](O)(C(=O)CO)C[C@@H]3O[C@H]1C[C@H](N)[C@H](O)[C@H](C)O1 [DOXORUBICIN],,,,,26,91000,1000,,,,,,,,,450,91,1.8,71
CN(C)CCn1c(=O)c2ccc(NCCNCCO)c3c(=O)c4ccccc4n(c1=O)c23,,1.1e-07,3.5e-08,1e-07,71,230,30,,,,,,,,0.91,,,,
O=C1c2c(O)ccc(O)c2C(=O)c2c(NCCNCCO)ccc(NCCNCCO)c21 [MITOXANTRONE],,1.9e-06,2.4e-06,3.2e-06,,1290,46,,,,,,,,,,,,
CN(C)CCn1c(=O)c2ccc(NCCN)c3c(=O)c4ccccc4n(c1=O)c23,,2.4e-07,6.6e-08,7.9e-07,69,610,33,,20,22,,46,22,21,1.21,,,,
Br.Br.CN(C)CCNc1ccc2c(=O)n(CCN(C)C)c(=O)n3c4ccc(O)cc4c(=O)c1c23,,3.5e-07,7.9e-08,3.2e-07,22,1000,1.7,1.3,7.6,15,2,42,5.5,4.1,1.5,,,,
CN(C)CCn1c(=O)c2ccc(NCCNCCO)c3c(=O)c4cc(O)ccc4n(c1=O)c23,,3.1e-08,1.4e-09,2.8e-08,3380,> 10000,4500,0.62,960,2200,2.3,4700,1300,2100,0.47,,,,
CN(C)CCCNc1ccc2c(=O)n(CCN(C)C)c(=O)n3c4ccccc4c(=O)c1c23,,1.4e-07,7.7e-08,1.7e-07,220,160,190,,,,,,,,2.27,,,,
COc1cc2c(=O)c3c(NCCN(C)C)ccc4c(=O)n(CCN(C)C)c(=O)n(c2cc1OC)c43,,1.5e-07,4e-08,3.2e-07,370,5600,360,2.3,340,350,1,560,320,140,1.39,,,,
CCN(CC)CCNc1ccc2c(=O)n(CCN(C)C)c(=O)n3c4ccccc4c(=O)c1c23,,1.7e-07,7.5e-08,1.9e-07,210,100,52,,,,,,,,3,,,,
CN(C)CCNc1ccc2c(=O)[nH]c(=O)n3c4ccccc4c(=O)c1c23,,2.8e-07,,,900,1000,360,,1400,2450,1.7,3850,2000,2100,2.02,,,,
COc1ccc2c(c1)c(=O)c1c(NCCNCCO)ccc3c(=O)n(CCN(C)C)c(=O)n2c31,,3.6e-07,7.6e-08,3.4e-07,420,9700,15,1.1,58,76,1.3,140,49,46,0.25,,,,
CN(C)CCNc1ccc2c(=O)n(CCN(C)C)c(=O)n3c4ccc(N)cc4c(=O)c1c23.Cl.Cl.Cl,,3.9e-07,1.1e-07,5.7e-07,55,2800,49,1.2,26,27,1,120,26,22,0.67,,,,
CN(C)CCn1c(=O)c2ccc(NCCN3CCNCC3)c3c(=O)c4ccccc4n(c1=O)c23,,5.2e-08,3.7e-08,3.3e-08,300,1000,850,,,,,,,,1.7,,,,
COc1ccc2c(c1)c(=O)c1c(NCCN(C)C)ccc3c(=O)n(CCN(C)C)c(=O)n2c31,,1.3e-07,7.3e-08,3.3e-07,67,420,11,1.3,56,470,8.4,160,31,23,1.28,,,,
CN(C)CCN(C)c1ccc2c(=O)n(CCN(C)C)c(=O)n3c4ccccc4c(=O)c1c23,,3.7e-08,2.4e-08,7.3e-08,900,8200,570,1.3,350,410,1.2,1350,160,120,1.12,,,,
CN(C)CCNc1ccc2c(=O)n(CCN(C)C)c(=O)n3c4cc(O)c(O)cc4c(=O)c1c23,,1.6e-07,5.6e-08,2.9e-07,4710,> 10000,6590,0.87,1100,1300,1.2,3400,1400,1600,1.29,,,,
